{
  "source": "patent US20140274881A1",
  "about": "“BIODEGRADABLE THERAPEUTIC NANOPARTICLES CONTAINING AN ANTIMICROBIAL AGENT” (CAROLINAS HEALTHCARE SYSTEM, priority 2008, published 2014)",
  "key": {"[1]": {"assay": "In vitro drug release by dialysis method under sink conditions", "assay_type": "physicochemical", "conditions": "nafcillin-PBS solution without polymer nanoparticles in dialysis bag, 37° C.", "excerpt": "A dialysis method was used in the measurement of in vitro drug release. Drug release studies were done under sink conditions; the volume of the buffer was kept large (outer sink) compared to the volume of drug-loaded nanoparticles suspension in the dialysis bag. The (theoretical) situation of infinite dilution is known as a perfect sink; however, even though perfect sink conditions are never attainable in practice, they are the only situation in which a true release profile can be measured. For a given matrix volume, an increase in liquid volume or volume ratio will promote drug release due to the lower drug concentrations in the medium. The system developed was continuously agitated, resulting in the faster diffusion of drug through the dialysis membrane to the outer sink. FIG. 9A is a plot of cumulative drug release (%) versus time in hours, for release of nafcillin from nafcillin-PBS solution loaded in a dialysis bag with a molecular weight cut-off of 6 kDa at 37° C. FIG. 9B is a plot of cumulative drug release (%) versus time in hours for release of nafcillin from nafcillin-PBS solution loaded in a dialysis bag with a molecular weight cut-off of 12-14 kDa at 37° C. The release of nafcillin from nafcillin-PBS solution without polymer nanoparticles was rapid, since 97% of the drug was released within the first nine (9) hours. […]"}, "intracellular S. aureus": {"tested_on": "intracellular S. aureus", "assay": "Viability of intracellular S. aureus in infected osteoblasts treated with nanoparticles", "assay_type": "cell-based, Staphylococcus aureus", "conditions": "nafcillin alone, no nanoparticles", "protocol": "The viability of intracellular S. aureus following treatment with nanoparticles was determined. S. aureus was allowed to infect cultured primary mouse osteoblasts as described herein, followed by removal and killing of all remaining extracellular bacteria in culture. […] None of the nanoparticle preparations had any effect on osteoblast viability. All loaded formulations of particles caused a significant decrease in the viability of intracellular S. aureus inside infected osteoblasts at both 24 and 48 hours.\nFIG. 11 is a bar graph showing viability of intracellular S. aureus in osteoblasts treated with nanoparticles or nanoparticles loaded with nafcillin. Primary mouse osteoblasts were infected intracellularly with S. aureus and were subsequently treated with unloaded nanoparticles (G1 and G2) or nanoparticles loaded with nafcillin (G1.1, 1.2, 2.1 and 2.2) for 1 (0 hour), 24 and 48 hours. Osteoblasts were subsequently lysed following these time intervals with a solution containing 0.1% triton X-100, and serial dilutions of the lysates were plated on tryptic soy agar (TSA). Following an overnight incubation at 37° C., numbers of viable bacteria were enumerated, *, P<0.05 versus S. aureus-treated osteoblasts at the same time point. […]\nFollowing resuspension in OBGM, bacterial cell density is determined via spectrophotometric analysis. […]"}},
  "data": [
    {"smiles": "CCOc1ccc2ccccc2c1C(=O)N[C@@H]1C(=O)N2[C@@H]1SC(C)(C)[C@@H]2C(=O)O", "note": "[nafcillin, Nafcillin]", "values": [
      {"measurement": "cumulative drug release within the first nine (9) hours", "setting": "[1]", "result": 97, "unit": "%"},
      {"measurement": "viability of intracellular S. aureus, compared with untreated infected osteoblasts", "setting": "intracellular S. aureus", "result": "indistinguishable from untreated S. aureus-infected osteoblasts"}
    ]}
  ]
}
